# Laboratory results: patent US20230117757A1, “COENZYME Q PRODUCTION ACCELERATOR AND METHOD FOR ACCELERATING COENZYME Q PRODUCTION” (priority 2020, published 2023)
# Test system: HEK293 cells (human embryonic kidney cells)
# Assay: coenzyme Q10 production in mitochondria of HEK293 cells cultured with nicotinamide mononucleotide, quantified by LC-MS
# Assay type: cell-based
# Settings: HEK293 cells cultured three days in DMEM medium with 1 mM or 2.5 mM β-nicotinamide mononucleotide daily added; control 0 mM
# Procedure: To examine a production promoting effect of coenzyme Q10 caused by nicotinamide mononucleotide, HEK293 cells (human embryonic kidney cells) were cultured for three days (37° C., 5% CO2) in DMEM medium containing β-nicotinamide mononucleotide with a predetermined concentration (0 mM (control), 1 mM, and 2.5 mM daily added). Three days after the first day of culture, mitochondria were isolated from the HEK293 cells, and contained amounts of each of the reduced form (ubiquinol) and the oxidized form (ubiquinone) of coenzyme Q10 in the mitochondria were quantified by LC-MS method (LC column: KINETEX C18 column (Phenomenex), MS: Shimadzu LCMS-8060 (Shimadzu Corporation), eluent: 10 mM ammonium formate in Methanol, flow rate: 0.5 mL/minute, detection: MS/MS analysis by multiple reaction monitoring (MRM) method; Q10H2 883.6→197.15 m/z, Q10 881.4→197.15 m/z, Q9H2 815.6→197.15 m/z, Q9 813.6→197.15 m/z, Q8H2 747.6→197.15 m/z, Q8 745.6→197.15 m/z) (column: ODS, column temperature: 40° C., eluent: 70% acetonitrile/methanol (1:1) and 30% 0.05 M ammonium formate (prepared to be pH 7.2 with 10% ammonia water), flow rate: 1.0 mL/minute, detection: UV276 nm). […]
smiles,measurement,value
NC(=O)c1ccc[n+]([C@@H]2O[C@H](COP(=O)(O)O)[C@@H](O)[C@H]2O)c1 [nicotinamide mononucleotide],"sum amount of the reduced form and the oxidized form of coenzyme Q10 in the mitochondria, change vs control",approximately doubled
